Patent US20250090435A1, “PRESERVATIVES FOR COSMETIC AND PHARMACEUTICAL COMPOSITIONS” (priority 2021, published 2025)

How the values were obtained:
[1] = Thickening behavior study: viscosity of surfactant systems; format: physicochemical; conditions: for Viscosity: 12% AM, NaCl 1, pH 5.5, additive(s) at 1% w/w each; for Viscosity (change after each sequential addition) / Change in viscosity (symbol under Viscosity) / Viscosity (LV3/12 rpm): pH 5.5; for Change in viscosity (symbol under Viscosity) / Viscosity (LV3/12 rpm): 14% AM sodium coco sulfate/decyl glucoside system, additive(s) at 1% each
Procedure: Four formulations are shown in the four rightmost columns of Table 14 with ingredients indicated as a percentage by weight. The formulations differ in percentages of sodium chloride, 3-(heptyloxy)propane-1,2-diol, and 3-[(n-octyl)oxy]-1,2-propanediol.
A thickening behavior study was also performed in another basic surfactant system: Anionic/Non Ionic (APG—alkyl polyglucoside). Each column corresponds to a particular formulation with ingredients listed as a percentage by weight. The remainder was water, represented by Qs. % AM indicates % of active matter (e.g. % of dry surfactant).
(§1) A further thickening behavior study was performed in a different basic surfactant system: anionic/amphoteric (CAPB—Cocamidopropyl betaine). Each column corresponds to a particular formulation with ingredients listed as a percentage by weight. The remainder was water, represented by Qs. % AM indicates % of active matter (e.g. % of dry surfactant).
A further thickening behavior study was performed to compare sulfated surfactants and sulfate free surfactants. Each column corresponds to a particular formulation with ingredients listed as a percentage by weight. The remainder was water, represented by Qs. % AM indicates % of active matter (e.g. % of dry surfactant). Sodium chloride, 3-(heptyloxy)propane-1,2-diol, and 3-[(n-octyl)oxy]-1,2-propanediol were added sequentially with the change in viscosity measured after each addition and noted in Table 17 below.
as §1, with “to determine viscosity differences with and without salt (e.g. sodium chloride).” for “in a different basic surfactant system: anionic/amphoteric (CAPB—Cocamidopropyl betaine).”

[2] = Solubility in aqueous systems; format: physicochemical; conditions: compared to 3-(heptyloxy)propane-1,2-diol
[3] = Skin irritancy and skin sensitization
microbial growth = assay: BIOLUMIX assay to screen for preventing microbial growth; format: cell-based; conditions: 1% by weight in cleansing wipe, emulsion wipe, cream, shampoo, roll-on deodorant
Description: Efficacy of the compositions in preventing microbial growth were screened with a BIOLUMIX assay. The BIOLUMIX assay produces a color change when carbon dioxide, indicative of microbial contamination, is detected in a sample. Non-preserved formulations without 3-(heptyloxy)propane-1,2-diol were used as negative controls, and formulations were used at particular percentages of 3-(heptyloxy)propane-1,2-diol by weight. Passing criteria is meeting criteria A in Table 5.

[4] = test system: Staphylococcus epidermidis - code souchier C′; assay: Roll-on deodorant challenge test (ISO 11930, odor-causing bacteria); format: cell-based; conditions: addition of 1% in natural roll-on deodorant
Procedure: The roll-on deodorant challenge tests shown below were conducted in accordance with ISO 11930 except that formulations were tested with bacteria Corynebacterium xerosis—code souchier M′ and Staphylococcus epidermidis—code souchier C′, which are two of the major odor-causing bacteria found in skin flora. The roll-on deodorant formulations used in the challenge tests are described in Tables 3 and 4 above. A non-preserved formulation without 3-(heptyloxy)propane-1,2-diol was used as a negative control, and the high concentration formulation with 1% 3-(heptyloxy)propane-1,2-diol by weight was tested.

[5] = Ammonium Lauryl Sulfate (ALS) 8/APG 4 system
[6] = Ammonium Lauryl Sulfate (ALS) 10/CAPB 2 system
[7] = Na Cocoyl Sulfate (SCS) 8/APG 4 system
[8] = Na Lauryl Ether Sulfate (SLES) 8/APG 4 system
[9] = Na Lauryl Ether Sulfate (SLES) 10/CAPB 2 system
[10] = Sulfate free: Na Cocoyl Glutamate 8/Decyl Glucoside 4, 12% AM, added sequentially NaCl 2, 3-(heptyloxy)propane-1,2-diol 1, 3-[(n-octyl)oxy]-1,2-propanediol 1
[11] = Sulfate free: Na Cocoyl Glycinate 8/Decyl Glucoside 4, 12% AM, added sequentially NaCl 2, 3-(heptyloxy)propane-1,2-diol 1, 3-[(n-octyl)oxy]-1,2-propanediol 1
[12] = Sulfate free: Na Lauroyl Sarcosinate 8/Decyl Glucoside 4, 12% AM, added sequentially NaCl 2, 3-(heptyloxy)propane-1,2-diol 1, 3-[(n-octyl)oxy]-1,2-propanediol 1
[13] = Sulfate free: Na Lauryl Glucose Carboxylate 8/Decyl Glucoside 4, 12% AM, added sequentially NaCl 2, 3-(heptyloxy)propane-1,2-diol 1, 3-[(n-octyl)oxy]-1,2-propanediol 1
[14] = Sulfate free: Na Lauryl Sulfoacetate 8/Decyl Glucoside 4, 12% AM, added sequentially NaCl 2, 3-(heptyloxy)propane-1,2-diol 1, 3-[(n-octyl)oxy]-1,2-propanediol 1
[15] = Sulfated: Ammonium Lauryl Sulfate 8/Decyl Glucoside 4, 12% AM, added sequentially NaCl 1, 3-(heptyloxy)propane-1,2-diol 1, 3-[(n-octyl)oxy]-1,2-propanediol 1
[16] = Sulfated: Na Coco Sulfate 8/Decyl Glucoside 4, 12% AM, added sequentially NaCl 1, 3-(heptyloxy)propane-1,2-diol 1, 3-[(n-octyl)oxy]-1,2-propanediol 1
[17] = Sulfated: Na Lauryl Ether Sulfate 8/Decyl Glucoside 4, 12% AM, added sequentially NaCl 1, 3-(heptyloxy)propane-1,2-diol 1, 3-[(n-octyl)oxy]-1,2-propanediol 1
[18] = Sulfated: Na Lauryl Sulfate 8/Decyl Glucoside 4, 12% AM, added sequentially NaCl 1, 3-(heptyloxy)propane-1,2-diol 1, 3-[(n-octyl)oxy]-1,2-propanediol 1

Structure (SMILES)	Viscosity [1, 5]	Viscosity [1, 6]	Viscosity [1, 7]	Viscosity [1, 8]	Viscosity [1, 9]	Viscosity (change after each sequential addition) [1, 10]	Viscosity (change after each sequential addition) [1, 11]	Viscosity (change after each sequential addition) [1, 12]	Viscosity (change after each sequential addition) [1, 13]	Viscosity (change after each sequential addition) [1, 14]	Viscosity (change after each sequential addition) [1, 15]	Viscosity (change after each sequential addition) [1, 16]	Viscosity (change after each sequential addition) [1, 17]	Viscosity (change after each sequential addition) [1, 18]	Change in viscosity (symbol under Viscosity) ([1]; With 1% NaCl)	Viscosity (LV3/12 rpm) ([1]; With 1% NaCl)	further results
CCCCCCCCOCC(O)CO (stereo not drawn) [3-[(n-octyl)oxy]-1,2-propanediol]	550 cps	3250 cps	370 cps	50 cps	700 cps	≈	≈	≈	≈	≈	↑++	↑++	↑++	↑++	–	–	solubility in aqueous systems [2]: lower solubility in aqueous systems
[Cl-].[Na+] [NaCl]	–	–	–	–	–	≈	↑	≈	≈	≈	↑	↑	↑	↑	–	–	–
[Cl-].[Na+] [Sodium Chloride]	–	–	–	–	–	–	–	–	–	–	–	–	–	–	↑	280 cps	–
CCCCCCCOCC(O)CO (stereo not drawn) [3-(heptyloxy)propane-1,2-diol]	260 cps	2500 cps	130 cps	50 cps	200 cps	≈	≈	≈	≈	≈	↑+	↑+	↑+	↑	↑+	1600 cps	skin irritancy [3]: reduced/no skin irritancy; skin sensitization [3]: non-skin sensitizer; microbial growth in products (microbial growth): successfully blocks microbial growth; Change in viscosity (symbol under Viscosity) ([1]; Without Salt): ≈; Viscosity (LV3/12 rpm) ([1]; Without Salt, base without additives 70 cps): 80 cps; speed of logarithmic reduction of bacteria [4]: increases logarithmic reduction of bacteria such as Staphylococcus faster
